Non-standard residues stand in square brackets, D forms with d. Residues, ends and D or L forms follow the SMILES beside them. ξ: configuration not given here. Ile(3ξ) = CCC(C)[C@H](N)C(=O)O

Here are results for nine compounds from BindingDB's records for doi:10.1111/j.1432-1033.1992.tb17043.x (Universit&Eacute, 1992).

In this test the target is T1, Pituitary adenylate cyclase-activating polypeptide (Homo sapiens, UniProt P18509).
T1 sequence (P18509 whole entry): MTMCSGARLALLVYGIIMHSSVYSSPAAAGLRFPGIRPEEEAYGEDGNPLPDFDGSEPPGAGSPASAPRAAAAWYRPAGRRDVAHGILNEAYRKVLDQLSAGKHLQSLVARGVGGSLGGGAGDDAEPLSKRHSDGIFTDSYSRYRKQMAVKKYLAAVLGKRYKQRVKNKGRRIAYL

Compound `CSCC[C@H](NC(=O)[C@H](CCC(N)=O)NC(=O)[C@H](CCCCN)NC(=O)[C@H](CCCNC(=N)N)NC(=O)[C@H](Cc1ccc(O)cc1)NC(=O)[C@H](CCCNC(=N)N)NC(=O)[C@H](CO)NC(=O)[C@H](Cc1ccc(O)cc1)NC(=O)[C@H](CO)NC(=O)[C@H](CC(=O)O)NC(=O)[C@@H](NC(=O)[C@@H](N)Cc1ccccc1)[C@@H](C)O)C(=O)N[C@@H](C)C(=O)N[C@H](C(=O)N[C@@H](CCCCN)C(=O)N[C@@H](CCCCN)C(=O)N[C@@H](Cc1ccc(O)cc1)C(=O)N[C@@H](CC(C)C)C(=O)N[C@@H](C)C(=O)N[C@@H](C)C(=O)N[C@H](C(=O)N[C@@H](CC(C)C)C(=O)NCC(=O)N[C@@H](CCCCN)C(=O)N[C@@H](CCCNC(=N)N)C(=O)N[C@@H](Cc1ccc(O)cc1)C(=O)N[C@@H](CCCCN)C(=O)N[C@@H](CCC(N)=O)C(=O)N[C@@H](CCCNC(=N)N)C(=O)N[C@H](C(=O)N[C@@H](CCCCN)C(=O)N[C@@H](CC(N)=O)C(=O)N[C@@H](CCCCN)C(N)=O)C(C)C)C(C)C)C(C)C` came in with a Ki of 1.5 nM.

On to `CCC(C)[C@H](NC(=O)CNC(=O)[C@@H](N)CC(=O)O)C(=O)N[C@@H](Cc1ccccc1)C(=O)N[C@H](C(=O)N[C@@H](CC(=O)O)C(=O)N[C@@H](CO)C(=O)N[C@@H](Cc1ccc(O)cc1)C(=O)N[C@@H](CO)C(=O)N[C@@H](CCCN=C(N)N)C(=O)N[C@@H](Cc1ccc(O)cc1)C(=O)N[C@@H](CCCN=C(N)N)C(=O)N[C@@H](CCCCN)C(=O)N[C@@H](CCC(N)=O)C(=O)N[C@@H](CCSC)C(=O)N[C@@H](C)C(=O)N[C@H](C(=O)N[C@@H](CCCCN)C(=O)N[C@@H](CCCCN)C(=O)N[C@@H](Cc1ccc(O)cc1)C(=O)N[C@@H](CC(C)C)C(=O)N[C@@H](C)C(=O)N[C@@H](C)C(=O)N[C@H](C(=O)N[C@@H](CC(C)C)C(N)=O)C(C)C)C(C)C)[C@@H](C)O` (some centres undefined) [PACAP(3-27)] (H-DG[Ile(3ξ)]FTDSYSRYRKQMAVKKYLAAVL-NH2), for which the affinity, expressed as Ki, was 200 nM.

Turning to `CCC(C)[C@H](NC(=O)CN)C(=O)N[C@@H](Cc1ccccc1)C(=O)N[C@H](C(=O)N[C@@H](CC(=O)O)C(=O)N[C@@H](CO)C(=O)N[C@@H](Cc1ccc(O)cc1)C(=O)N[C@@H](CO)C(=O)N[C@@H](CCCN=C(N)N)C(=O)N[C@@H](Cc1ccc(O)cc1)C(=O)N[C@@H](CCCN=C(N)N)C(=O)N[C@@H](CCCCN)C(=O)N[C@@H](CCC(N)=O)C(=O)N[C@@H](CCSC)C(=O)N[C@@H](C)C(=O)N[C@H](C(=O)N[C@@H](CCCCN)C(=O)N[C@@H](CCCCN)C(=O)N[C@@H](Cc1ccc(O)cc1)C(=O)N[C@@H](CC(C)C)C(=O)N[C@@H](C)C(=O)N[C@@H](C)C(=O)N[C@H](C(=O)N[C@@H](CC(C)C)C(=O)NCC(=O)N[C@@H](CCCCN)C(=O)N[C@@H](CCCN=C(N)N)C(=O)N[C@@H](Cc1ccc(O)cc1)C(=O)N[C@@H](CCCCN)C(=O)N[C@@H](CCC(N)=O)C(=O)N[C@@H](CCCN=C(N)N)C(=O)N[C@H](C(=O)N[C@@H](CCCCN)C(=O)N[C@@H](CC(N)=O)C(=O)N[C@@H](CCCCN)C(N)=O)C(C)C)C(C)C)C(C)C)[C@@H](C)O` (some centres undefined) [PACAP(4-38)] (H-G[Ile(3ξ)]FTDSYSRYRKQMAVKKYLAAVLGKRYKQRVKNK-NH2), the inhibition constant Ki was 5 nM. To `CCC(C)[C@H](N)C(=O)N[C@@H](Cc1ccccc1)C(=O)N[C@H](C(=O)N[C@@H](CC(=O)O)C(=O)N[C@@H](CO)C(=O)N[C@@H](Cc1ccc(O)cc1)C(=O)N[C@@H](CO)C(=O)N[C@@H](CCCN=C(N)N)C(=O)N[C@@H](Cc1ccc(O)cc1)C(=O)N[C@@H](CCCN=C(N)N)C(=O)N[C@@H](CCCCN)C(=O)N[C@@H](CCC(N)=O)C(=O)N[C@@H](CCSC)C(=O)N[C@@H](C)C(=O)N[C@H](C(=O)N[C@@H](CCCCN)C(=O)N[C@@H](CCCCN)C(=O)N[C@@H](Cc1ccc(O)cc1)C(=O)N[C@@H](CC(C)C)C(=O)N[C@@H](C)C(=O)N[C@@H](C)C(=O)N[C@H](C(=O)N[C@@H](CC(C)C)C(N)=O)C(C)C)C(C)C)[C@@H](C)O` (some centres undefined) [PACAP(5-27)] (H-[Ile(3ξ)]FTDSYSRYRKQMAVKKYLAAVL-NH2) belongs 150 nM; to `CCC(C)[C@H](N)C(=O)N[C@@H](Cc1ccccc1)C(=O)N[C@H](C(=O)N[C@@H](CC(=O)O)C(=O)N[C@@H](CO)C(=O)N[C@@H](Cc1ccc(O)cc1)C(=O)N[C@@H](CO)C(=O)N[C@@H](CCCN=C(N)N)C(=O)N[C@@H](Cc1ccc(O)cc1)C(=O)N[C@@H](CCCN=C(N)N)C(=O)N[C@@H](CCCCN)C(=O)N[C@@H](CCC(N)=O)C(=O)N[C@@H](CCSC)C(=O)N[C@@H](C)C(=O)N[C@H](C(=O)N[C@@H](CCCCN)C(=O)N[C@@H](CCCCN)C(=O)N[C@@H](Cc1ccc(O)cc1)C(=O)N[C@@H](CC(C)C)C(=O)N[C@@H](C)C(=O)N[C@@H](C)C(=O)N[C@H](C(=O)N[C@@H](CC(C)C)C(=O)NCC(=O)N[C@@H](CCCCN)C(=O)N[C@@H](CCCN=C(N)N)C(=O)N[C@@H](Cc1ccc(O)cc1)C(=O)N[C@@H](CCCCN)C(=O)N[C@@H](CCC(N)=O)C(=O)N[C@@H](CCCN=C(N)N)C(=O)N[C@H](C(=O)N[C@@H](CCCCN)C(=O)N[C@@H](CC(N)=O)C(=O)N[C@@H](CCCCN)C(N)=O)C(C)C)C(C)C)C(C)C)[C@@H](C)O` (some centres undefined) [PACAP(5-38)] (H-[Ile(3ξ)]FTDSYSRYRKQMAVKKYLAAVLGKRYKQRVKNK-NH2), 5 nM; to `CCC(C)[C@H](NC(=O)CNC(=O)[C@H](CC(=O)O)NC(=O)[C@@H](Cc1ccccc1)NC(=O)[C@H](Cc1cnc[nH]1)NC(C)=O)C(=O)N[C@@H](Cc1ccccc1)C(=O)N[C@H](C(=O)N[C@@H](CC(=O)O)C(=O)N[C@@H](CO)C(=O)N[C@@H](Cc1ccc(O)cc1)C(=O)N[C@@H](CO)C(=O)N[C@@H](CCCN=C(N)N)C(=O)N[C@@H](Cc1ccc(O)cc1)C(=O)N[C@@H](CCCN=C(N)N)C(=O)N[C@@H](CCCCN)C(=O)N[C@@H](CCC(N)=O)C(=O)N[C@@H](CCSC)C(=O)N[C@@H](C)C(=O)N[C@H](C(=O)N[C@@H](CCCCN)C(=O)N[C@@H](CCCCN)C(=O)N[C@@H](Cc1ccc(O)cc1)C(=O)N[C@@H](CC(C)C)C(=O)N[C@@H](C)C(=O)N[C@@H](C)C(=O)N[C@H](C(=O)N[C@@H](CC(C)C)C(N)=O)C(C)C)C(C)C)[C@@H](C)O` (some centres undefined) [[AcHis1,DPhe2]PACAP(1-27)], 1000 nM. The figure for `CC[C@H](C)[C@H](NC(=O)CNC(=O)[C@H](CC(=O)O)NC(=O)[C@@H](Cc1ccccc1)NC(=O)[C@H](Cc1cnc[nH]1)NC(C)=O)C(=O)N[C@@H](Cc1ccccc1)C(=O)N[C@H](C(=O)N[C@@H](CC(=O)O)C(=O)N[C@@H](CO)C(=O)N[C@@H](Cc1ccc(O)cc1)C(=O)N[C@@H](CO)C(=O)N[C@@H](CCCN=C(N)N)C(=O)N[C@@H](Cc1ccc(O)cc1)C(=O)N[C@@H](CCCN=C(N)N)C(=O)N[C@@H](CCCCN)C(=O)N[C@@H](CCC(N)=O)C(=O)N[C@@H](CCSC)C(=O)N[C@@H](C)C(=O)N[C@H](C(=O)N[C@@H](CCCCN)C(=O)N[C@@H](CCCCN)C(=O)N[C@@H](Cc1ccc(O)cc1)C(=O)N[C@@H](CC(C)C)C(=O)N[C@@H](C)C(=O)N[C@@H](C)C(=O)N[C@H](C(=O)N[C@@H](CC(C)C)C(=O)NCC(=O)N[C@@H](CCCCN)C(=O)N[C@@H](CCCN=C(N)N)C(=O)N[C@@H](Cc1ccc(O)cc1)C(=O)N[C@@H](CCCCN)C(=O)N[C@@H](CCC(N)=O)C(=O)N[C@@H](CCCN=C(N)N)C(=O)N[C@H](C(=O)N[C@@H](CCCCN)C(=O)N[C@@H](CC(N)=O)C(=O)N[C@@H](CCCCN)C(N)=O)C(C)C)C(C)C)C(C)C)[C@@H](C)O` [[AcHis1,DPhe2]PACAP(1-38)] is 10 nM; for `CCC(C)[C@H](NC(=O)CNC(=O)[C@H](CC(=O)O)NC(=O)[C@H](Cc1ccccc1)NC(=O)[C@H](Cc1cnc[nH]1)NC(C)=O)C(=O)N[C@@H](Cc1ccccc1)C(=O)N[C@H](C(=O)N[C@@H](CC(=O)O)C(=O)N[C@@H](CO)C(=O)N[C@@H](Cc1ccc(O)cc1)C(=O)N[C@@H](CO)C(=O)N[C@@H](CCCN=C(N)N)C(=O)N[C@@H](Cc1ccc(O)cc1)C(=O)N[C@@H](CCCN=C(N)N)C(=O)N[C@@H](CCCCN)C(=O)N[C@@H](CCC(N)=O)C(=O)N[C@@H](CCSC)C(=O)N[C@@H](C)C(=O)N[C@H](C(=O)N[C@@H](CCCCN)C(=O)N[C@@H](CCCCN)C(=O)N[C@@H](Cc1ccc(O)cc1)C(=O)N[C@@H](CC(C)C)C(=O)N[C@@H](C)C(=O)N[C@@H](C)C(=O)N[C@H](C(=O)N[C@@H](CC(C)C)C(N)=O)C(C)C)C(C)C)[C@@H](C)O` (some centres undefined) [[AcHis1,Phe2]PACAP(1-27)] it is 100 nM. The figure for `CCC(C)[C@H](NC(=O)CNC(=O)[C@H](CC(=O)O)NC(=O)[C@H](Cc1ccccc1)NC(=O)[C@H](Cc1cnc[nH]1)NC(C)=O)C(=O)N[C@@H](Cc1ccccc1)C(=O)N[C@H](C(=O)N[C@@H](CC(=O)O)C(=O)N[C@@H](CO)C(=O)N[C@@H](Cc1ccc(O)cc1)C(=O)N[C@@H](CO)C(=O)N[C@@H](CCCN=C(N)N)C(=O)N[C@@H](Cc1ccc(O)cc1)C(=O)N[C@@H](CCCN=C(N)N)C(=O)N[C@@H](CCCCN)C(=O)N[C@@H](CCC(N)=O)C(=O)N[C@@H](CCSC)C(=O)N[C@@H](C)C(=O)N[C@H](C(=O)N[C@@H](CCCCN)C(=O)N[C@@H](CCCCN)C(=O)N[C@@H](Cc1ccc(O)cc1)C(=O)N[C@@H](CC(C)C)C(=O)N[C@@H](C)C(=O)N[C@@H](C)C(=O)N[C@H](C(=O)N[C@@H](CC(C)C)C(=O)NCC(=O)N[C@@H](CCCCN)C(=O)N[C@@H](CCCN=C(N)N)C(=O)N[C@@H](Cc1ccc(O)cc1)C(=O)N[C@@H](CCCCN)C(=O)N[C@@H](CCC(N)=O)C(=O)N[C@@H](CCCN=C(N)N)C(=O)N[C@H](C(=O)N[C@@H](CCCCN)C(=O)N[C@@H](CC(N)=O)C(=O)N[C@@H](CCCCN)C(N)=O)C(C)C)C(C)C)C(C)C)[C@@H](C)O` (some centres undefined) [[AcHis1,Phe2]PACAP(1-38)] is 10 nM.

As a reminder, the Ki is the dissociation constant of the complex between target and ligand, obtained from inhibition or displacement. A low value points to higher affinity.
